Active and inactive are the calls of the source. The calls are words filed in the database; no cut-off is given here.
Legend:
Huh-7.5 [1] = experiment: Effect on PAPD7 expression in human Huh7.5 cells at 1 uM incubated for 24 hrs by Western blot analysis; assay type: functional, cell-based
[2] = Inhibition HBsAg secretion in human HepG2.2.15 cells treated for 3 days followed by medium replacement without compound measured after 2 days by CLIA; assay type: functional, cell-based; settings: HepG2 2.2.15
Huh-7.5 [3] = experiment: Effect on PAPD5 expression in human Huh7.5 cells at 1 uM incubated for 24 hrs by Western blot analysis; assay type: functional, cell-based
Huh-7.5 [4] = experiment: Effect on actin expression in human Huh7.5 cells at 1 uM incubated for 24 hrs by Western blot analysis; assay type: functional, cell-based
HepG2.2.15 [5] = experiment: Inhibition of 2.1 to 3.5 kb HBV mRNA accumulation in human HepG2.2.15 cells at 1 to 2 nM treated for 5 days by northern blot analysis; assay type: functional, cell-based; settings: Hepatitis B virus, dose 1-2 nM, time 5.0 day
Huh-7.5 [6] = experiment: Effect on PAPD7 expression in human Huh7.5 cells at 250 nM incubated for 24 hrs by Western blot analysis; assay type: functional, cell-based
Huh-7.5 [7] = experiment: Effect on PAPD5 expression in human Huh7.5 cells at 250 nM incubated for 24 hrs by Western blot analysis; assay type: functional, cell-based
Hepatovirus A = experiment: Inhibition of replication of Hepatitis A virus expressing 18f-NLuc infected in human Huh7.5 cells treated for 48 hrs by luminescence based analysis; assay type: functional, organism-based; settings: for IC50: Huh7.5, 48 h
[8] = Cytotoxicity against human Huh7.5 cells; assay type: toxicity, cell-based, Huh-7.5
HepG2.2.15 [9] = experiment: Inhibition of 2.1 to 3.5 kb HBV mRNA accumulation in human HepG2.2.15 cells at 7.5 to 15 uM treated for 5 days by northern blot analysis; assay type: functional, cell-based; settings: Hepatitis B virus, dose 7.5-15 µM, time 5.0 day
[10] = molecular target: T1, Protein cereblon/Terminal nucleotidyltransferase 4B (Homo sapiens) (UniProt Q96SW2+Q8NDF8); experiment: PROTAC activity at CRBN/PAPD5 in human Huh7.5 cells assessed as protein degradation at 10 uM incubated for 24 hrs in presence of epoxomicin by Western blot analysis; assay type: cell-based
[11] = Inhibition HBsAg secretion in human Huh-7 cells harboring pHBV1.3 treated for 2 days followed by replacement of medium containing compound measured after 4 days by CLIA; assay type: functional, cell-based
Huh-7.5 [12] = experiment: Effect on actin expression in human Huh7.5 cells at 10 uM incubated for 24 hrs by Western blot analysis; assay type: functional, cell-based
Huh-7.5 [13] = experiment: Effect on PAPD7 expression in human Huh7.5 cells at 10 uM incubated for 24 hrs by Western blot analysis; assay type: functional, cell-based
[14] = Cytotoxicity against human Huh-7 cells assessed as cell viability by Cell Titer Glo assay; assay type: toxicity, cell-based
[15] = molecular target: T1, Protein cereblon/Terminal nucleotidyltransferase 4B (Homo sapiens); experiment: PROTAC activity at CRBN/PAPD5 in human Huh7.5 cells assessed as protein degradation at 10 uM incubated for 24 hrs by Western blot analysis; assay type: cell-based

T1 sequence (Q8NDF8 whole entry, looked up): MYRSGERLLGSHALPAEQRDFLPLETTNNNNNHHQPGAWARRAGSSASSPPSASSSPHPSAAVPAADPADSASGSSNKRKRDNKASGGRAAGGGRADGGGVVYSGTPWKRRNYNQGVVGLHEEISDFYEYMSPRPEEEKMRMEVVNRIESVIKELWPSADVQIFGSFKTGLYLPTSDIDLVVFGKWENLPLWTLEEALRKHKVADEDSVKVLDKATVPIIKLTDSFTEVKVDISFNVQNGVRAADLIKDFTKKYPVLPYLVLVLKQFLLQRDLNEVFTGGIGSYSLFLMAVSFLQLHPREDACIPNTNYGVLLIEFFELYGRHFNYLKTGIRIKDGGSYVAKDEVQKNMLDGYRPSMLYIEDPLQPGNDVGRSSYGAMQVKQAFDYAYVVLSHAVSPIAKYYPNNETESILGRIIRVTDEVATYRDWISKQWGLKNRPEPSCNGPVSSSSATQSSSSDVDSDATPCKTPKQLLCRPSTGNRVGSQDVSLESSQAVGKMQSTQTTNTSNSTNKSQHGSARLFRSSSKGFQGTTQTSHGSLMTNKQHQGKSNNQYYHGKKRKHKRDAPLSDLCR
T1 sequence (Q96SW2 whole entry, looked up): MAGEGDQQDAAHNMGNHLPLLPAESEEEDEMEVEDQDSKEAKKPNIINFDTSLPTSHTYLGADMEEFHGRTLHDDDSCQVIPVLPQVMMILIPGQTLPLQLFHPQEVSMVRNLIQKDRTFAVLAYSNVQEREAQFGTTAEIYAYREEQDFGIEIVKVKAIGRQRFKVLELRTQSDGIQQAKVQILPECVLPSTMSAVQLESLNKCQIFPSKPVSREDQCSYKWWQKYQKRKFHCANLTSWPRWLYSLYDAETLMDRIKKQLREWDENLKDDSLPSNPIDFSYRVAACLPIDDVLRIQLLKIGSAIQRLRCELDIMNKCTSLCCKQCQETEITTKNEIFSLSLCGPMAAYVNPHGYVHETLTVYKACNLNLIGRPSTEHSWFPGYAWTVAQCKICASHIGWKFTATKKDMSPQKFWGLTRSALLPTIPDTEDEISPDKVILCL

Q: Which Activity (Huh-7.5 [1]) does the source give for `COCCCOc1cc2c(cc1OC)-c1cc(=O)c(C(=O)O)cn1[C@H](C(C)C)C2` here?
A: inactive

Q: And the IC50 [2]?
A: 0.001 µM

Q: And the Activity (Huh-7.5 [3])?
A: inactive

Q: And the Activity (Huh-7.5 [4])?
A: inactive

Q: And the inhibition (HepG2.2.15 [5])?
A: Active

Q: What does the source list for `CC[C@H](C)[C@H](NC(=O)[C@H]([C@@H](C)CC)N(C)C(C)=O)C(=O)N[C@H](C(=O)N[C@@H](CC(C)C)C(=O)[C@@]1(C)CO1)[C@@H](C)O`?
A: Activity (Huh-7.5 [6]): inactive; Activity (Huh-7.5 [7]): inactive

Q: With `COc1cc2c(cc1OCCCNC(=O)CCOCCOCCOCCNc1cccc3c1C(=O)N(C1CCC(=O)NC1=O)C3=O)C[C@@H](C(C)C)n1cc(C(=O)O)c(=O)cc1-2` (some centres not stated) as the molecule, how does the inhibition (Hepatovirus A) read?
A: Dose-Dependent Effect

Q: What about the IC50 (Hepatovirus A) of the same molecule?
A: 0.576 µM

Q: What about the CC50 [8] of the same molecule?
A: > 50 µM

Q: What about the inhibition (HepG2.2.15 [9]) of the same molecule?
A: Active

Q: Which results are given for `COc1cc2c(cc1OCCCNC(=O)CCOCCOCCOCCOCCOCCOCCNc1cccc3c1C(=O)N(C1CCC(=O)NC1=O)C3=O)C[C@@H](C(C)C)n1cc(C(=O)O)c(=O)cc1-2` (some centres not stated)?
A: Activity [10]: inactive; IC50 [2]: 16.2 µM; inhibition (Hepatovirus A): Dose-Dependent Effect; IC50 (Hepatovirus A): 0.277 µM; CC50 [8]: > 50 µM; inhibition (HepG2.2.15 [9]): Active; IC50 [11]: 10.6 µM; Activity (Huh-7.5 [12]): inactive; Activity (Huh-7.5 [13]): inactive; CC50 [14]: > 50 µM; Activity [15]: Active
